Values after ≈ are worked out from the molar mass of the structure shown. Read-outs that look alike come from different tables or passages of the source. Some results are limits rather than exact numbers.

The subject of test [1] is control Gram-negative E. coli 25922 strain. In words: Antibacterial activity, microbroth dilution MIC, E. coli 25922. It is filed as cell-based, Escherichia coli. The settings on record: Escherichia coli; E. coli 25922, microbroth dilution; read-out: MIC, 25922. In general terms: Dilution methods test growth across graded concentrations, often in twofold steps.
Test [2] relates to Gram-positive Staphylococcus aureus (S. aureus) 29213. Briefly: Antibacterial activity, microbroth dilution MIC, S. aureus 29213. The settings on record: Staphylococcus aureus; S. aureus 29213, microbroth dilution; read-out: MIC, 29213. It is filed as cell-based.
Test [3] relates to super sensitive Gram-negative Escherichia coli (E. coli) BAS849. In words: Antibacterial activity, microbroth dilution MIC, E. coli BAS849. It is filed as cell-based. The settings on record: Escherichia coli, read-out: MIC, BAS849.
In test [4] the test system is quinolone resistant E. coli LZ3111. In words: Antibacterial activity, MIC, quinolone resistant E. coli LZ3111. It is filed as cell-based, Escherichia coli. The settings on record: Escherichia coli, read-out: MIC, LZ3111. An excerpt:
The antibacterial activity from a microbroth dilution method may be presented as the minimum inhibitory concentration (MIC in […]). The MIC value is the lowest concentration of a drug which prevents macroscopically visible bacterial growth under test conditions.
Mutations in these regions are known to confer a high level resistance to the quinolone class of antibiotics.

The mark [5] stands for this setting: E. coli BAS849, microbroth dilution.

Usually MIC stands for the lowest concentration that inhibits growth of the organism. Turning to `CCc1c(-c2ccc(N3CCC(O)CC3)cc2)[nH]c(=O)c(C(=O)O)c1O` [Cpd 280, 5-ethyl-4-hydroxy-6-[4-(4-hydroxypiperidin-1-yl)phenyl]-2-oxo-1,2-dihydropyridine-3-carboxylic acid], the MIC is 12.5 to 150 µg/mL (≈ 34.9 to 419 µM) in test [1], 12.5 to 150 µg/mL (≈ 34.9 to 419 µM) in test [2], less than 1 µg/mL in test [3] (setting [5]) and 12.5 to 150 µg/mL (≈ 34.9 to 419 µM) in test [4].

`CCc1cc(C(=O)O)c(=O)[nH]c1-c1ccc(N2CCC(n3ccnn3)C2)cc1` (centres unmarked) [Cpd 230, 5-ethyl-2-oxo-6-{4-[3-(1H-1,2,3-triazol-1-yl)pyrrolidin-1-yl]phenyl}-1,2-dihydropyridine-3-carboxylic acid]: the minimal inhibitory concentration (MIC) in test [1] was 1 to 3.5 µg/mL (≈ 2.64 to 9.22 µM); in test [2], 3.5 to 12.5 µg/mL (≈ 9.22 to 32.9 µM); in test [3] (setting [5]) it was less than 1 µg/mL; in test [4], 12.5 to 150 µg/mL (≈ 32.9 to 395 µM).

`CCc1c(-c2ccc(N3CCC(N(Cc4ccccc4)Cc4ccccc4)CC3)cc2)[nH]c(=O)c(C(=O)O)c1O` [Cpd 283, 6-{4-[4-(dibenzylamino)piperidin-1-yl]phenyl}-5-ethyl-4-hydroxy-2-oxo-1,2-dihydropyridine-3-carboxylic acid]: the minimum inhibitory concentration (MIC) was in the range of 12.5 to 150 µg/mL (≈ 23.2 to 279 µM) in test [1], 12.5 to 150 µg/mL (≈ 23.2 to 279 µM) in test [2], 3.5 to 12.5 µg/mL (≈ 6.51 to 23.2 µM) in test [3] (setting [5]) and 12.5 to 150 µg/mL (≈ 23.2 to 279 µM) in test [4].

With `CCc1c(-c2ccc(N3CCC(N)CC3)cc2)[nH]c(=O)c(C(=O)O)c1O` [Cpd 284, 6-[4-(4-aminopiperidin-1-yl)phenyl]-5-ethyl-4-hydroxy-2-oxo-1,2-dihydropyridine-3-carboxylic acid], the minimal inhibitory concentration (MIC) in test [1] was 12.5 to 150 µg/mL (≈ 35 to 420 µM); in test [2], 12.5 to 150 µg/mL (≈ 35 to 420 µM); in test [3] (setting [5]) it was 3.5 to 12.5 µg/mL (≈ 9.79 to 35 µM); in test [4] it was 12.5 to 150 µg/mL (≈ 35 to 420 µM).

In the case of `CCc1cc(C(=O)O)c(=O)[nH]c1-c1ccc(N2CC3CC3(N)C2)cc1.Cl` (centres unmarked) [Cpd 169, 6-[4-(1-amino-3-azabicyclo[3.1.0]hex-3-yl)phenyl]-5-ethyl-2-oxo-1,2-dihydropyridine-3-carboxylic acid hydrochloride], the minimal inhibitory concentration (MIC) in test [1] is 1 to 3.5 µg/mL; in test [2], 12.5 to 150 µg/mL; in test [3] (setting [5]), less than 1 µg/mL; in test [4] it was 12.5 to 150 µg/mL.

As to `CCc1c(-c2ccc(N3CCOCC3)cn2)[nH]c(=O)c(C(=O)O)c1O` [Cpd 112, 5-ethyl-4-hydroxy-6-(5-morpholinopyridin-2-yl)-2-oxo-1,2-dihydropyridine-3-carboxylic acid], the MIC was 12.5 to 150 µg/mL (≈ 36.2 to 434 µM) in test [1], 12.5 to 150 µg/mL (≈ 36.2 to 434 µM) in test [2], less than 1 µg/mL in test [3] (setting [5]) and 12.5 to 150 µg/mL (≈ 36.2 to 434 µM) in test [4].

Turning to `CCc1cc(C(=O)O)c(=O)[nH]c1-c1ccc(N2CCCC2)cc1OC` [Cpd 50, 5-ethyl-6-[2-methoxy-4-(pyrrolidin-1-yl)phenyl]-2-oxo-1,2-dihydropyridine-3-carboxylic acid], the MIC in test [1], in test [2], in test [3] (setting [5]) and in test [4] was 12.5 to 150 µg/mL (≈ 36.5 to 438 µM) in each case.

On to `CCc1cc(C(=O)O)c(=O)[nH]c1-c1ccc(N2CC(N)C3(CC3)C2)cc1.O=C(O)C(F)(F)F` (centres unmarked) [Cpd 214, 6-[4-(7-amino-5-azaspiro[2.4]hept-5-yl)phenyl]-5-ethyl-2-oxo-1,2-dihydropyridine-3-carboxylic acid trifluoroacetate], for which the MIC in test [1] was 12.5 to 150 µg/mL; in test [2] it was 12.5 to 150 µg/mL; in test [3], 1 to 3.5 µg/mL; in test [4], 12.5 to 150 µg/mL.

Take `CCc1cc(C(=O)O)c(=O)[nH]c1-c1ccc(N2CCC(CNCc3ccc(F)cc3)C2)cc1` (centres unmarked) [Cpd 239, 5-ethyl-6-[4-(3-{[(4-fluorobenzyl)amino]methyl}pyrrolidin-1-yl)phenyl]-2-oxo-1,2-dihydropyridine-3-carboxylic acid]: the MIC in test [1] was less than 1 µg/mL; in test [2] it was 12.5 to 150 µg/mL (≈ 27.8 to 334 µM); in test [3] (setting [5]), less than 1 µg/mL; in test [4], 12.5 to 150 µg/mL (≈ 27.8 to 334 µM).

On to `CCc1cc(C(=O)O)c(=O)[nH]c1-c1ccc(N2CCC(CNC)C2)cc1.Cl` (centres unmarked) [Cpd 184, 5-ethyl-6-(4-{3-[(methylamino)methyl]pyrrolidin-1-yl}phenyl)-2-oxo-1,2-dihydropyridine-3-carboxylic acid hydrochloride], for which the minimal inhibitory concentration (MIC) in test [1] fell in the range of 12.5 to 150 µg/mL; in test [2] it was 12.5 to 150 µg/mL; in test [3] (setting [5]), 1 to 3.5 µg/mL; in test [4], 12.5 to 150 µg/mL.

As to `CCc1c(-c2ccc(N3CC4=CCCC[C@@H]4C3)cc2)[nH]c(=O)c(C(=O)O)c1O.Cl` [Cpd 297, 5-ethyl-6-{4-[(3aS)-1,3,3a,4,5,6-hexahydro-2H-isoindol-2-yl]phenyl}-4-hydroxy-2-oxo-1,2-dihydropyridine-3-carboxylic acid hydrochloride], the minimal inhibitory concentration (MIC) in test [1] was 12.5 to 150 µg/mL; in test [2], 3.5 to 12.5 µg/mL; in test [3] (setting [5]), less than 1 µg/mL; in test [4] it was 12.5 to 150 µg/mL.

With `CCc1cc(C(=O)O)c(=O)[nH]c1-c1ccc(N2C[C@H]3CCC[C@@H](N)[C@H]3C2)cc1.O=C(O)C(F)(F)F` [Cpd 197, 6-{4-[(3aR,4R,7aS)-4-aminooctahydro-2H-isoindol-2-yl]phenyl}-5-ethyl-2-oxo-1,2-dihydropyridine-3-carboxylic acid trifluoroacetate], the MIC in test [1] was in the range of 12.5 to 150 µg/mL; in test [2], 12.5 to 150 µg/mL; in test [3], 3.5 to 12.5 µg/mL; in test [4], 12.5 to 150 µg/mL.

Take `CCc1c(-c2ccc(N3CC4CC3CN4)cc2)[nH]c(=O)c(C(=O)O)c1O.O=C(O)C(F)(F)F` (centres unmarked) [Cpd 295, 6-[4-(2,5-diazabicyclo[2.2.1]hept-2-yl)phenyl]-5-ethyl-4-hydroxy-2-oxo-1,2-dihydropyridine-3-carboxylic acid trifluoroacetate]: the minimum inhibitory concentration (MIC) lay in the range of 12.5 to 150 µg/mL in test [1], 12.5 to 150 µg/mL in test [2], 1 to 3.5 µg/mL in test [3] and 12.5 to 150 µg/mL in test [4].

On to `CCc1c(-c2ccc(N3CC4CC3CN4C(=O)OC(C)(C)C)cc2)[nH]c(=O)c(C(=O)O)c1O` (centres unmarked) [Cpd 294, 6-{4-[5-(tert-butoxycarbonyl)-2,5-diazabicyclo[2.2.1]hept-2-yl]phenyl}-5-ethyl-4-hydroxy-2-oxo-1,2-dihydropyridine-3-carboxylic acid], for which the MIC in test [1] was 12.5 to 150 µg/mL (≈ 27.4 to 329 µM); in test [2], 1 to 3.5 µg/mL (≈ 2.2 to 7.68 µM); in test [3] it was less than 1 µg/mL; in test [4], 12.5 to 150 µg/mL (≈ 27.4 to 329 µM).

As for `CCc1cc(C(=O)O)c(=O)[nH]c1-c1ccc(N2C[C@H]3C[C@@H](NC)[C@H]3C2)cc1.Cl` [Cpd 210, 5-ethyl-6-{4-[(1S,5R,6R)-6-(methylamino)-3-azabicyclo[3.2.0]hept-3-yl]phenyl}-2-oxo-1,2-dihydropyridine-3-carboxylic acid hydrochloride], the minimum inhibitory concentration (MIC) in test [1] lay within 12.5 to 150 µg/mL; in test [2], 12.5 to 150 µg/mL; in test [3] (setting [5]), 1 to 3.5 µg/mL; in test [4] it was 12.5 to 150 µg/mL.

Turning to `CCc1cc(C(=O)O)c(=O)[nH]c1-c1ccc(N2C[C@H]3CC[C@@H](NC)[C@H]3C2)cc1.Cl` [Cpd 200, 5-ethyl-6-{4-[(3aR,4R,6aS)-4-(methylamino)hexahydrocyclopenta[c]pyrrol-2(1H)-yl]phenyl}-2-oxo-1,2-dihydropyridine-3-carboxylic acid hydrochloride], the minimum inhibitory concentration (MIC) in test [1] was in the range of 3.5 to 12.5 µg/mL; in test [2] it was 12.5 to 150 µg/mL; in test [3] (setting [5]), 1 to 3.5 µg/mL; in test [4] it was 12.5 to 150 µg/mL.

As to `CCc1cc(C(=O)O)c(=O)[nH]c1-c1ccc(N2CCC(CNCc3ccncc3)C2)cc1` (centres unmarked) [Cpd 242, 5-ethyl-2-oxo-6-[4-(3-{[(pyridin-4-ylmethyl)amino]methyl}pyrrolidin-1-yl)phenyl]-1,2-dihydropyridine-3-carboxylic acid], the minimum inhibitory concentration (MIC) in test [1] was 1 to 3.5 µg/mL (≈ 2.31 to 8.09 µM); in test [2], 12.5 to 150 µg/mL (≈ 28.9 to 347 µM); in test [3] (setting [5]) it was less than 1 µg/mL; in test [4] it was 12.5 to 150 µg/mL (≈ 28.9 to 347 µM).

Values taken from patent US9650395B2, “Antibacterial compounds and methods for use” (PTC Therapeutics, Inc., priority 2011, dated 2017).
